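Assay format: 96-well plates, 48-hour exposure. GI50 is the concentration that inhibits growth by half.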 Active and inactive are the calls of the source. No stated cut-off is given here; in the data, active = GI50 up to about 1.1 µM and inactive = higher.
Key:
Assay in all cases: NCI tumour cell line growth inhibition, 48 h
ACHN = test system: ACHN
COLO 205 = test system: COLO 205
EKVX = test system: EKVX
HCC 2998 = test system: HCC 2998
HCT-116 = test system: HCT-116
MDA-MB-231 = test system: MDA-MB-231
MDA-MB-435 = test system: MDA-MB-435
NCI-H23 = test system: NCI-H23
NCI-H522 = test system: NCI-H522
OVCAR-3 = test system: OVCAR-3
OVCAR-4 = test system: OVCAR-4
SF-268 = test system: SF-268
SF-295 = test system: SF-295
SF-539 = test system: SF-539
SK-MEL-28 = test system: SK-MEL-28
SNB-19 = test system: SNB-19
T47D = test system: T47D
Malme-3M = test system: Malme-3M
HL-60 = test system: HL-60

Measured: GI50

C=CCCCC1(C)CCNC1=S (stereo not drawn)
inactive: ACHN > 100 µM | COLO 205 > 100 µM | EKVX > 100 µM | HCC 2998 > 100 µM | HCT-116 > 100 µM | MDA-MB-231 > 100 µM | MDA-MB-435 > 100 µM | NCI-H23 > 100 µM | NCI-H522 > 100 µM | OVCAR-3 > 100 µM | OVCAR-4 > 100 µM | SF-268 > 100 µM | SF-295 > 100 µM | SF-539 > 100 µM | SK-MEL-28 > 100 µM | SNB-19 > 100 µM | T47D > 100 µM

Fc1ccc(C(OCCN2CCC3CCC(C2)N3C/C=C/c2cccnc2)c2ccc(F)cc2)cc1 (stereo not drawn)
inactive: ACHN 14.2 µM | COLO 205 1.3 µM | EKVX 12.2 µM | HCC 2998 4.79 µM | HCT-116 5.93 µM | MDA-MB-231 13.3 µM | MDA-MB-435 11.1 µM | Malme-3M 4.08 µM | NCI-H23 12.8 µM | NCI-H522 13.6 µM | OVCAR-3 12.8 µM | OVCAR-4 12.6 µM | SF-268 12.8 µM | SF-295 9.23 µM | SF-539 11.5 µM | SK-MEL-28 2.24 µM | SNB-19 15.2 µM | T47D 12.6 µM

Cc1ccc(S(=O)(=O)NC(=O)NC(Cc2ccccc2)C(=O)O)cc1 (stereo not drawn)
inactive: ACHN > 100 µM | COLO 205 > 100 µM | HCT-116 > 100 µM | HL-60 > 100 µM | MDA-MB-231 > 100 µM | Malme-3M > 100 µM | NCI-H23 > 100 µM | NCI-H522 > 100 µM | OVCAR-4 > 100 µM | SF-268 > 100 µM | SF-295 > 100 µM | SF-539 > 100 µM | SK-MEL-28 > 100 µM | SNB-19 > 100 µM | T47D > 100 µM

COc1ccc(/C=N/n2c(-c3ccccc3)n[nH]c2=O)cc1
inactive: ACHN > 100 µM | COLO 205 > 100 µM | EKVX > 100 µM | HCC 2998 > 100 µM | HCT-116 74.5 µM | MDA-MB-231 > 100 µM | MDA-MB-435 > 100 µM | Malme-3M > 100 µM | NCI-H23 > 100 µM | OVCAR-3 > 100 µM | OVCAR-4 53.8 µM | SF-268 > 100 µM | SF-295 > 100 µM | SF-539 > 100 µM | SK-MEL-28 > 100 µM | SNB-19 > 100 µM | T47D > 100 µM

O=C(CCCCCCCCC(=O)NN1C(=O)/C(=C\c2ccc(O)c(O)c2)SC1c1c(O)ccc2ccccc12)NN1C(=O)C(=Cc2ccc(O)c(O)c2)SC1c1c(O)ccc2ccccc12 (stereo not drawn)
inactive: ACHN 4.8 µM | COLO 205 20.4 µM | EKVX 7.59 µM | HCC 2998 24.5 µM | HCT-116 4.05 µM | MDA-MB-231 > 23.8 µM | MDA-MB-435 > 27.2 µM | Malme-3M 5.24 µM | NCI-H23 9.35 µM | NCI-H522 5.75 µM | OVCAR-3 2.25 µM | OVCAR-4 5.16 µM | SF-268 6.4 µM | SF-295 3.86 µM | SF-539 8.45 µM | SK-MEL-28 10 µM | SNB-19 22.6 µM | T47D 11.3 µM

C[C@H]1S[C@H](c2c(F)cccc2F)n2c1nc1ccccc12
inactive: ACHN 55.1 µM | COLO 205 37 µM | EKVX 66.2 µM | HCC 2998 64.7 µM | HCT-116 34.6 µM | MDA-MB-231 68.7 µM | MDA-MB-435 34 µM | Malme-3M 41.5 µM | NCI-H23 34.8 µM | OVCAR-3 24.2 µM | OVCAR-4 45.5 µM | SF-268 60.5 µM | SF-295 39.1 µM | SK-MEL-28 71.3 µM | SNB-19 > 100 µM | T47D 29.2 µM

COc1ccc(N2C(=O)C3CC4=CC(=O)C[C@H]4[C@H]32)cc1 (stereo partly drawn)
inactive: ACHN 53.7 µM | COLO 205 52.5 µM | HCC 2998 45.1 µM | HCT-116 20.7 µM | MDA-MB-231 > 100 µM | MDA-MB-435 22.9 µM | NCI-H23 > 100 µM | OVCAR-3 57.7 µM | OVCAR-4 > 100 µM | SF-268 > 100 µM | SF-295 > 100 µM | SK-MEL-28 > 100 µM | SNB-19 > 100 µM | T47D > 100 µM

C[N+](C)(C)CC(=O)N/N=C(/CC(=O)CC(C1=C(O)c2ccccc2OC1)c1ccccc1)C(=O)Nc1cccc(Cl)c1 (stereo not drawn)
inactive: ACHN > 100 µM | COLO 205 > 100 µM | EKVX > 100 µM | HCC 2998 > 100 µM | HCT-116 > 100 µM | HL-60 > 100 µM | MDA-MB-231 > 100 µM | NCI-H23 > 100 µM | NCI-H522 > 100 µM | OVCAR-3 > 100 µM | OVCAR-4 > 100 µM | SF-268 > 100 µM | SF-295 > 100 µM | SF-539 > 100 µM | SK-MEL-28 > 100 µM | T47D > 100 µM

NS(=O)(=O)c1ccc(NCc2nc3ccccc3[nH]2)cc1
inactive: ACHN > 100 µM | COLO 205 > 100 µM | EKVX > 100 µM | HCT-116 > 100 µM | MDA-MB-231 > 100 µM | MDA-MB-435 > 100 µM | Malme-3M > 100 µM | NCI-H23 > 100 µM | NCI-H522 > 100 µM | OVCAR-3 > 100 µM | OVCAR-4 > 100 µM | SF-268 > 100 µM | SF-295 > 100 µM | SF-539 > 100 µM | SNB-19 > 100 µM | T47D > 100 µM

CCOC(=O)CCC(C(=O)OCC)n1nc2ccc(Nc3c(C)[n+]([O-])c4ccc(Cl)cc4[n+]3[O-])cc2n1 (stereo not drawn)
inactive: ACHN 15.8 µM | COLO 205 32.7 µM | EKVX 17.5 µM | HCC 2998 2.93 µM | HCT-116 20.6 µM | HL-60 38.2 µM | MDA-MB-435 30.2 µM | Malme-3M 30.1 µM | NCI-H23 21.5 µM | NCI-H522 30.1 µM | OVCAR-3 24.9 µM | OVCAR-4 28.8 µM | SF-268 12.2 µM | SF-295 16.8 µM | SF-539 20.7 µM | SNB-19 30.1 µM | T47D 21.7 µM

NN/C(=N\S(=O)(=O)c1cc(S(=O)(=O)c2ccccc2)cs1)Nc1ccc(Cl)cc1
inactive: ACHN 27.5 µM | COLO 205 19.4 µM | EKVX 13.6 µM | HCT-116 20.9 µM | HL-60 4.58 µM | MDA-MB-231 27.4 µM | NCI-H23 23.8 µM | NCI-H522 13.2 µM | OVCAR-3 20.3 µM | OVCAR-4 20 µM | SF-268 19.9 µM | SF-295 17.6 µM | SF-539 42.7 µM | SK-MEL-28 35.2 µM | SNB-19 42.1 µM | T47D 13.8 µM

CC1(C)CCc2c(cc3c(c2O)CCC(C)(C)O3)O1
inactive: ACHN > 100 µM | COLO 205 > 100 µM | EKVX > 100 µM | HCC 2998 > 100 µM | HCT-116 61.2 µM | HL-60 27.3 µM | MDA-MB-231 > 100 µM | Malme-3M 12.3 µM | NCI-H23 > 100 µM | NCI-H522 61.1 µM | OVCAR-3 > 100 µM | OVCAR-4 > 100 µM | SF-268 > 100 µM | SF-295 96.8 µM | SF-539 > 100 µM | SK-MEL-28 > 100 µM | SNB-19 > 100 µM | T47D 41.8 µM
